Source: the kinase profiling compilation of Christmann-Franck et al. (2016)
pKd: −log10 of the molar value.

What was measured:
Test in all cases: KINOMEscan competition binding
STK17B (human) = STK17B (human) (UniProt O94768); conditions: compound 10.0 µM
[1] = system: EIF2AK4 KD2 (human), Q9P2K8 [S808G]; conditions: compound 10.0 µM
RPS6KA5 KD2 (human) = RPS6KA5 KD2 (human) (UniProt O75582); conditions: compound 10.0 µM
RIOK3 (human) = RIOK3 (human) (UniProt O14730); conditions: compound 10.0 µM
AURKB (human) = AURKB (human) (UniProt Q96GD4); conditions: for kinase still bound, per cent of control: compound 10.0 µM
Sequence of AURKB (human) (Q96GD4 whole entry, looked up): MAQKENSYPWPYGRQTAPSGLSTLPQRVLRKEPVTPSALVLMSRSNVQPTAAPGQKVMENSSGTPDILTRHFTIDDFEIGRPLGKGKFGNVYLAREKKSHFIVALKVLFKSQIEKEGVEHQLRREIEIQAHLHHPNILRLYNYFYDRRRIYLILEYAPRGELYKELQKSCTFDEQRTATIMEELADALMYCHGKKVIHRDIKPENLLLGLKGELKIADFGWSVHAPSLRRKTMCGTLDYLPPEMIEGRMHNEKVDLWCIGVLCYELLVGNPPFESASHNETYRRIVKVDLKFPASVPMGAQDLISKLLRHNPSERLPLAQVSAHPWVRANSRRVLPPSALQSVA

SRPK3 (human) = SRPK3 (human) (UniProt Q9UPE1); conditions: compound 10.0 µM
DAPK1 (human) = DAPK1 (human) (UniProt P53355); conditions: compound 10.0 µM
Sequence of DAPK1 (human) (P53355 whole entry, looked up): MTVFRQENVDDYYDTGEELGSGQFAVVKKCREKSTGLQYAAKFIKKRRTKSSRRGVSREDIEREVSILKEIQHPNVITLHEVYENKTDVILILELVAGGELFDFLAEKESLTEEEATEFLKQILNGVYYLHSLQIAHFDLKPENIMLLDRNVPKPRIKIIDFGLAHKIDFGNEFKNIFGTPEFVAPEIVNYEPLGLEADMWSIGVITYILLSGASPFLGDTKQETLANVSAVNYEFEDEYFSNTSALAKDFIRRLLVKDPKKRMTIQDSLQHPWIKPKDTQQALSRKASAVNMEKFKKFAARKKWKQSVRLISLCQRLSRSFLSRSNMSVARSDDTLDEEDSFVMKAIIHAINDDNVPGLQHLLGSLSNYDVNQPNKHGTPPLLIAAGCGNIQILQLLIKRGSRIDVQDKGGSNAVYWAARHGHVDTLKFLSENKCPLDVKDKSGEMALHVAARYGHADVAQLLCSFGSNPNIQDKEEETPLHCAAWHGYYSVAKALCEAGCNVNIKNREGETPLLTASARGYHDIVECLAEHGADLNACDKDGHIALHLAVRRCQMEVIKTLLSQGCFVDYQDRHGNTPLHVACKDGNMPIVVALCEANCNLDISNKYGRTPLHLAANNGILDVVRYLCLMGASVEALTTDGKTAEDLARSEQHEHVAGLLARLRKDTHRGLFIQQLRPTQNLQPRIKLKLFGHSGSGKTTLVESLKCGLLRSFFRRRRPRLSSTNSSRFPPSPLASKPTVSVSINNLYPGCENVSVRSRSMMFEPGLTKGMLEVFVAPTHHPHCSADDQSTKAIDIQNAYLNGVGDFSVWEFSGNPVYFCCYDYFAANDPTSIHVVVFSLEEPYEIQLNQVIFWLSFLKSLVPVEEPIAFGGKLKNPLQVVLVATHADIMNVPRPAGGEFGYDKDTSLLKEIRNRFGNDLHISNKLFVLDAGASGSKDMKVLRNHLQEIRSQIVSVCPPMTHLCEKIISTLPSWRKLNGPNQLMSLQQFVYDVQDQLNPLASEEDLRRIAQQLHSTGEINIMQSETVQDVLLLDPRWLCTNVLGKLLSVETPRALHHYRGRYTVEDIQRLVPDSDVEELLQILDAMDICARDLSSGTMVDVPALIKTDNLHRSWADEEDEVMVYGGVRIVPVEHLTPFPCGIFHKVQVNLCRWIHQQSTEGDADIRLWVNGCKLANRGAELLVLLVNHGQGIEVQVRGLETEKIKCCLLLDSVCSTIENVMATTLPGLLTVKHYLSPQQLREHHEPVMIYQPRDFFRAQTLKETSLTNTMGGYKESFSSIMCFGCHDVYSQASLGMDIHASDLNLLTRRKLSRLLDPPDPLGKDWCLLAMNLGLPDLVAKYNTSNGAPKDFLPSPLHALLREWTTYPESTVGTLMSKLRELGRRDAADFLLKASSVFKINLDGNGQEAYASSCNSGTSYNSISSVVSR

[2] = system: EGFR (human), P00533 [G719S]; conditions: compound 10.0 µM
PIK3CG (human) = PIK3CG (human) (UniProt P48736); conditions: compound 10.0 µM
CAMKK1 (human) = CAMKK1 (human) (UniProt Q8N5S9); conditions: compound 10.0 µM
Sequence of CAMKK1 (human) (Q8N5S9 whole entry, looked up): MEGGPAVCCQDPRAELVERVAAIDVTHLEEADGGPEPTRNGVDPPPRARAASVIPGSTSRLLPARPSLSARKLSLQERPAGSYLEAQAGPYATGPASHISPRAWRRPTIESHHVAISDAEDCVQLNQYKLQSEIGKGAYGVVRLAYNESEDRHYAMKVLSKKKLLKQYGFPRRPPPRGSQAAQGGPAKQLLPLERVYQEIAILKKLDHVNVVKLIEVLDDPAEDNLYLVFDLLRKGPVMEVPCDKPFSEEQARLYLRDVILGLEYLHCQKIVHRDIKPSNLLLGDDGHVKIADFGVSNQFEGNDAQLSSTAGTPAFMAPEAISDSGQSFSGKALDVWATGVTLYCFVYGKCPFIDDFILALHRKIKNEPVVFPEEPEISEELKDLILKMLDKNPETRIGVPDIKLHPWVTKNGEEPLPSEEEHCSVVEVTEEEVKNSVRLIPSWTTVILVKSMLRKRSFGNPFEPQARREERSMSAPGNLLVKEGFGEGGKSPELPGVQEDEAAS

CAMKK2 (human) = CAMKK2 (human) (UniProt Q96RR4); conditions: compound 10.0 µM
GAK (human) = GAK (human) (UniProt O14976); conditions: compound 10.0 µM
CLK4 (human) = CLK4 (human) (UniProt Q9HAZ1); conditions: compound 10.0 µM
Sequence of CLK4 (human) (Q9HAZ1 whole entry, looked up): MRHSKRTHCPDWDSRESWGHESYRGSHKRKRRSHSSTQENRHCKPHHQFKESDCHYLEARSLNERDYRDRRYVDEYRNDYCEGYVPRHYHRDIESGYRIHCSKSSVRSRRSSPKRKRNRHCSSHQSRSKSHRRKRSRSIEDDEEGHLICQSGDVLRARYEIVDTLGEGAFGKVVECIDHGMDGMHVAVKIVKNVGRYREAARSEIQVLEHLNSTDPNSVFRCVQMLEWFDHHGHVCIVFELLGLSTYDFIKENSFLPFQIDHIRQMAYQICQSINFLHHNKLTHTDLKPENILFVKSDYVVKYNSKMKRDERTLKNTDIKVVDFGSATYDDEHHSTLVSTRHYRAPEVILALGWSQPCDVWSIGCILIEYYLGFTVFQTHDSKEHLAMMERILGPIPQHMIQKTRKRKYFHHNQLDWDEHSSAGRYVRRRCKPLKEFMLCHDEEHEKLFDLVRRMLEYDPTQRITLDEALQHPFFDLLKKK

CLK1 (human) = CLK1 (human) (UniProt P49759); conditions: compound 10.0 µM
CSNK1D (human) = CSNK1D (human) (UniProt P48730); conditions: compound 10.0 µM
CSNK2A2 (human) = CSNK2A2 (human) (UniProt P19784); conditions: compound 10.0 µM
PIM2 (human) = PIM2 (human) (UniProt Q9P1W9); conditions: compound 10.0 µM
CSNK1G3 (human) = CSNK1G3 (human) (UniProt Q9Y6M4); conditions: compound 10.0 µM
STK16 (human) = STK16 (human) (UniProt O75716); conditions: compound 10.0 µM
DYRK1B (human) = DYRK1B (human) (UniProt Q9Y463); conditions: compound 10.0 µM
BMPR1B (human) = BMPR1B (human) (UniProt O00238); conditions: compound 10.0 µM
Sequence of BMPR1B (human) (O00238 whole entry, looked up): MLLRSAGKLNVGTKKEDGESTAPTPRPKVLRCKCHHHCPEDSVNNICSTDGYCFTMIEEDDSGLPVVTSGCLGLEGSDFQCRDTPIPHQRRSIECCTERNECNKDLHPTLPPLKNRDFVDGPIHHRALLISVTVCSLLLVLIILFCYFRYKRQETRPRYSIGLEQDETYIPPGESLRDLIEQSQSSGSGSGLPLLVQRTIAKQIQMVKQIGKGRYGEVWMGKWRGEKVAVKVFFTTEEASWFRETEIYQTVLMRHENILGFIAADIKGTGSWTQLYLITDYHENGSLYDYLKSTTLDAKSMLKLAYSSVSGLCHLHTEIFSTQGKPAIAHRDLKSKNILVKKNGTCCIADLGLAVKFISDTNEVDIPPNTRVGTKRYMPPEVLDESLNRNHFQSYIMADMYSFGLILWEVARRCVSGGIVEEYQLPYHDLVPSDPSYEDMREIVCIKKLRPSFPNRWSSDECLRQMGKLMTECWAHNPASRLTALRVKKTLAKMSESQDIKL

MELK (human) = MELK (human) (UniProt Q14680); conditions: compound 10.0 µM
MYLK3 (human) = MYLK3 (human) (UniProt Q32MK0); conditions: compound 10.0 µM
RPS6KA1 KD2 (human) = RPS6KA1 KD2 (human) (UniProt Q15418); conditions: compound 10.0 µM
PLK4 (human) = PLK4 (human) (UniProt O00444); conditions: compound 10.0 µM
Sequence of PLK4 (human) (O00444 whole entry, looked up): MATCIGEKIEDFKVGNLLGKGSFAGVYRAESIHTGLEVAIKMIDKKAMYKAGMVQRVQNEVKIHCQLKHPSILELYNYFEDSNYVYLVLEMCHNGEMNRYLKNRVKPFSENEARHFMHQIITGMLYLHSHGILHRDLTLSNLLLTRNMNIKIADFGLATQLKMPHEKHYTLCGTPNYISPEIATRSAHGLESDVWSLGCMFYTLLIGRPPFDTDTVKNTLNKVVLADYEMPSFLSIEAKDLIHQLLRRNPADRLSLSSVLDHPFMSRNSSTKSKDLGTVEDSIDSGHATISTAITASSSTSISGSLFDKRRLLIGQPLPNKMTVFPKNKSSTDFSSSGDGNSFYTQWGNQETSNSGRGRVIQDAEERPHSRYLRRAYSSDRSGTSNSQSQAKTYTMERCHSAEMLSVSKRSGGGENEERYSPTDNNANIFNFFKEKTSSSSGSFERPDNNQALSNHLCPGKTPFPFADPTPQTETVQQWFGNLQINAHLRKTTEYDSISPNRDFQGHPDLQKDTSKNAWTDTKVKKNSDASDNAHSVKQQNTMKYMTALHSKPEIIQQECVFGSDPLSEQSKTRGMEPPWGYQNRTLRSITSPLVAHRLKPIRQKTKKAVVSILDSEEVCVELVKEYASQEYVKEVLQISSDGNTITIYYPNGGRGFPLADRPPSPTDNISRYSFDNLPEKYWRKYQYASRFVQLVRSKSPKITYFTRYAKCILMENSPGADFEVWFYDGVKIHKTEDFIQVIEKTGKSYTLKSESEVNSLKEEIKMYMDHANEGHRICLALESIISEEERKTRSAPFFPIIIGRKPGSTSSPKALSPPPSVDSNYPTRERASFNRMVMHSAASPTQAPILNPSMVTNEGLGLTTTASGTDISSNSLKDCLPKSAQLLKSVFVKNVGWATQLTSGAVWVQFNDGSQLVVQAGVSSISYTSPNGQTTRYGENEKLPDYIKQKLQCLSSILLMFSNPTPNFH

FLT3 (human) = FLT3 (human) (UniProt P36888); conditions: compound 10.0 µM
[3] = system: FLT3 (human), P36888 [K663Q]; conditions: compound 10.0 µM
GSK3A (human) = GSK3A (human) (UniProt P49840); conditions: compound 10.0 µM
STK24 (human) = STK24 (human) (UniProt Q9Y6E0); conditions: compound 10.0 µM
[4] = system: FLT3 (human), P36888 [ITD]; conditions: compound 10.0 µM
CIT (human) = CIT (human) (UniProt O14578); conditions: compound 10.0 µM
TNIK (human) = TNIK (human) (UniProt Q9UKE5); conditions: compound 10.0 µM
RIPK4 (human) = RIPK4 (human) (UniProt P57078); conditions: compound 10.0 µM
BRSK2 (human) = BRSK2 (human) (UniProt Q8IWQ3); conditions: compound 10.0 µM
ACVR1 (human) = ACVR1 (human) (UniProt Q04771); conditions: compound 10.0 µM
PRKD3 (human) = PRKD3 (human) (UniProt O94806); conditions: compound 10.0 µM
KIT (human) = KIT (human) (UniProt P10721); conditions: compound 10.0 µM
MAP3K7 (human) = MAP3K7 (human) (UniProt O43318); conditions: compound 10.0 µM
MKNK2 (human) = MKNK2 (human) (UniProt Q9HBH9); conditions: compound 10.0 µM
MAP4K4 (human) = MAP4K4 (human) (UniProt O95819); conditions: compound 10.0 µM
RIOK2 (human) = RIOK2 (human) (UniProt Q9BVS4); conditions: compound 10.0 µM
MAP3K5 (human) = MAP3K5 (human) (UniProt Q99683); conditions: compound 10.0 µM

Sequence of RPS6KA5 KD2 (human) (O75582 whole entry, looked up): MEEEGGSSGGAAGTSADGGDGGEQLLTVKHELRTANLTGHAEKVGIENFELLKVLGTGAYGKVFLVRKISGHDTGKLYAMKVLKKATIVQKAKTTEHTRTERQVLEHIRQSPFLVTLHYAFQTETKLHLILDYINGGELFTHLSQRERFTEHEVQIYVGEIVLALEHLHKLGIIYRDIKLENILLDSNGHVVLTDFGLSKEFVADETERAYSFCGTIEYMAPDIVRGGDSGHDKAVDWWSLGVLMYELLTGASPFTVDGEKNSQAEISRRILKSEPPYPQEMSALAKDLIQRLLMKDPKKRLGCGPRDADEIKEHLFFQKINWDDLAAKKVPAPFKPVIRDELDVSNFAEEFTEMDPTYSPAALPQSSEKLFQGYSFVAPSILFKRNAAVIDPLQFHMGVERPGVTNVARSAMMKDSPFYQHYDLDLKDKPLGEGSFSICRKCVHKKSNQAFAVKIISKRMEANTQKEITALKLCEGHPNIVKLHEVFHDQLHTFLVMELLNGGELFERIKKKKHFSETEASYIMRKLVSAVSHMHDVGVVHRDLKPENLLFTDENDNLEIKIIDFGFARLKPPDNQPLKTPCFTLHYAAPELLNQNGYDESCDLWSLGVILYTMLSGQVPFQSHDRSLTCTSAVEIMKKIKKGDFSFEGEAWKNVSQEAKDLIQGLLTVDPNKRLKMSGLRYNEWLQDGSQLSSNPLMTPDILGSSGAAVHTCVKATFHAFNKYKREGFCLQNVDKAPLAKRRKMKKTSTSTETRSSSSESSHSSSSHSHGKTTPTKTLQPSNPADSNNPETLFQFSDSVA

Nc1cccc(-c2cc(/C=C3\SC(=O)NC3=O)c[nH]c2=O)c1
kinase still bound, per cent of control (STK17B (human)): 1%
kinase still bound, per cent of control [1]: 0.6%
kinase still bound, per cent of control (RPS6KA5 KD2 (human)): 11%
kinase still bound, per cent of control (RIOK3 (human)): 8.6%
kinase still bound, per cent of control (AURKB (human)): 8%
kinase still bound, per cent of control (SRPK3 (human)): 13%
kinase still bound, per cent of control (DAPK1 (human)): 2.2%
kinase still bound, per cent of control [2]: 21%
kinase still bound, per cent of control (PIK3CG (human)): 11%
kinase still bound, per cent of control (CAMKK1 (human)): 3.6%
kinase still bound, per cent of control (CAMKK2 (human)): 5.8%
kinase still bound, per cent of control (GAK (human)): 9.2%
kinase still bound, per cent of control (CLK4 (human)): 16%
kinase still bound, per cent of control (CLK1 (human)): 2.1%
kinase still bound, per cent of control (CSNK1D (human)): 23%
kinase still bound, per cent of control (CSNK2A2 (human)): 9.6%
kinase still bound, per cent of control (PIM2 (human)): 1%
kinase still bound, per cent of control (CSNK1G3 (human)): 13%
kinase still bound, per cent of control (STK16 (human)): 9.3%
kinase still bound, per cent of control (DYRK1B (human)): 0.4%
kinase still bound, per cent of control (BMPR1B (human)): 2.2%
kinase still bound, per cent of control (MELK (human)): 30%
kinase still bound, per cent of control (MYLK3 (human)): 2%

N=C1NC(=O)/C(=C/c2ccc(-c3cncc4ccccc34)o2)S1
kinase still bound, per cent of control (RPS6KA1 KD2 (human)): 11%
kinase still bound, per cent of control (STK17B (human)): 0.2%
kinase still bound, per cent of control (PLK4 (human)): 0.95%
kinase still bound, per cent of control (FLT3 (human)): 10%
kinase still bound, per cent of control [1]: 0.7%
kinase still bound, per cent of control (RIOK3 (human)): 2.2%
pKd (AURKB (human)): 6.68
kinase still bound, per cent of control (AURKB (human)): 0.8%
kinase still bound, per cent of control [3]: 8.1%
kinase still bound, per cent of control (SRPK3 (human)): 7.2%
kinase still bound, per cent of control (DAPK1 (human)): 5.9%
kinase still bound, per cent of control (GSK3A (human)): 14%
kinase still bound, per cent of control [2]: 26%
kinase still bound, per cent of control (STK24 (human)): 16%
kinase still bound, per cent of control [4]: 1.2%
kinase still bound, per cent of control (CIT (human)): 19%
kinase still bound, per cent of control (TNIK (human)): 8%
kinase still bound, per cent of control (CAMKK1 (human)): 3.4%
kinase still bound, per cent of control (RIPK4 (human)): 4.7%
kinase still bound, per cent of control (BRSK2 (human)): 7.1%
kinase still bound, per cent of control (CAMKK2 (human)): 7.4%
kinase still bound, per cent of control (GAK (human)): 0.9%
kinase still bound, per cent of control (ACVR1 (human)): 0.5%
kinase still bound, per cent of control (CLK4 (human)): 2.8%
kinase still bound, per cent of control (PRKD3 (human)): 26%
kinase still bound, per cent of control (CLK1 (human)): 2%
kinase still bound, per cent of control (CSNK1D (human)): 3.4%
kinase still bound, per cent of control (CSNK2A2 (human)): 5.1%
kinase still bound, per cent of control (KIT (human)): 10%
kinase still bound, per cent of control (PIM2 (human)): 0.9%
kinase still bound, per cent of control (STK16 (human)): 2.6%
kinase still bound, per cent of control (DYRK1B (human)): 11%
kinase still bound, per cent of control (MELK (human)): 28%
kinase still bound, per cent of control (MYLK3 (human)): 0.55%

CN1C(=O)[C@H]2CCC[C@H]2N(C2CCCC2)c2nc(Nc3ccc(C(N)=O)cc3)ncc21
kinase still bound, per cent of control (RPS6KA1 KD2 (human)): 7.6%
kinase still bound, per cent of control (STK17B (human)): 0.2%
kinase still bound, per cent of control (PLK4 (human)): 1.6%
kinase still bound, per cent of control (MAP3K7 (human)): 3.4%
kinase still bound, per cent of control (FLT3 (human)): 19%
kinase still bound, per cent of control (AURKB (human)): 8.6%
kinase still bound, per cent of control [3]: 14%
kinase still bound, per cent of control (SRPK3 (human)): 27%
kinase still bound, per cent of control (MKNK2 (human)): 16%
kinase still bound, per cent of control (DAPK1 (human)): 3.2%
kinase still bound, per cent of control (STK24 (human)): 16%
kinase still bound, per cent of control [4]: 20%
kinase still bound, per cent of control (PIK3CG (human)): 11%
kinase still bound, per cent of control (CIT (human)): 28%
kinase still bound, per cent of control (TNIK (human)): 13%
kinase still bound, per cent of control (MAP4K4 (human)): 3.5%
kinase still bound, per cent of control (RIPK4 (human)): 30%
kinase still bound, per cent of control (CAMKK2 (human)): 33%
kinase still bound, per cent of control (GAK (human)): 15%
kinase still bound, per cent of control (CLK4 (human)): 5.2%
kinase still bound, per cent of control (CLK1 (human)): 0.9%
kinase still bound, per cent of control (CSNK1G3 (human)): 17%
kinase still bound, per cent of control (STK16 (human)): 4.8%
kinase still bound, per cent of control (DYRK1B (human)): 2.8%
kinase still bound, per cent of control (MELK (human)): 27%
kinase still bound, per cent of control (RIOK2 (human)): 6%
kinase still bound, per cent of control (MYLK3 (human)): 5.5%

CS(=O)(=O)Nc1ccc(-c2cc(/C=C3\SC(=N)NC3=O)c[nH]c2=O)cc1
kinase still bound, per cent of control (STK17B (human)): 31%
kinase still bound, per cent of control (PLK4 (human)): 24%
kinase still bound, per cent of control (MAP3K7 (human)): 18%
kinase still bound, per cent of control (FLT3 (human)): 8.6%
kinase still bound, per cent of control [1]: 25%
kinase still bound, per cent of control (RPS6KA5 KD2 (human)): 0.15%
kinase still bound, per cent of control (RIOK3 (human)): 6%
kinase still bound, per cent of control [3]: 13%
kinase still bound, per cent of control (SRPK3 (human)): 14%
kinase still bound, per cent of control (DAPK1 (human)): 6.4%
kinase still bound, per cent of control (CIT (human)): 23%
kinase still bound, per cent of control (MAP4K4 (human)): 25%
kinase still bound, per cent of control (CAMKK1 (human)): 33%
kinase still bound, per cent of control (CAMKK2 (human)): 31%
kinase still bound, per cent of control (ACVR1 (human)): 27%
kinase still bound, per cent of control (MAP3K5 (human)): 4.6%
kinase still bound, per cent of control (CLK4 (human)): 6%
kinase still bound, per cent of control (PRKD3 (human)): 33%
kinase still bound, per cent of control (CLK1 (human)): 1.6%
kinase still bound, per cent of control (CSNK2A2 (human)): 3.4%
kinase still bound, per cent of control (KIT (human)): 22%
kinase still bound, per cent of control (PIM2 (human)): 3.4%
kinase still bound, per cent of control (DYRK1B (human)): 3.2%
kinase still bound, per cent of control (BMPR1B (human)): 4.1%
kinase still bound, per cent of control (RIOK2 (human)): 33%

N=C1NC(=O)/C(=C/c2ccc(-c3ccccc3O)o2)S1
kinase still bound, per cent of control (STK17B (human)): 2%
kinase still bound, per cent of control (PLK4 (human)): 3.2%
kinase still bound, per cent of control (RPS6KA5 KD2 (human)): 29%
kinase still bound, per cent of control (RIOK3 (human)): 20%
kinase still bound, per cent of control (DAPK1 (human)): 7.6%
kinase still bound, per cent of control (CAMKK1 (human)): 13%
kinase still bound, per cent of control (RIPK4 (human)): 5.2%
kinase still bound, per cent of control (BRSK2 (human)): 29%
kinase still bound, per cent of control (CAMKK2 (human)): 18%
kinase still bound, per cent of control (GAK (human)): 7.6%
kinase still bound, per cent of control (MAP3K5 (human)): 19%
kinase still bound, per cent of control (CLK4 (human)): 5.2%
kinase still bound, per cent of control (PRKD3 (human)): 28%
kinase still bound, per cent of control (CLK1 (human)): 3.4%
kinase still bound, per cent of control (CSNK2A2 (human)): 17%
kinase still bound, per cent of control (PIM2 (human)): 1.4%
kinase still bound, per cent of control (DYRK1B (human)): 1.8%
kinase still bound, per cent of control (BMPR1B (human)): 8.8%
kinase still bound, per cent of control (MYLK3 (human)): 29%

N=C1NC(=O)/C(=C/c2ccc(-c3ccc(C(N)=O)cc3O)o2)S1
kinase still bound, per cent of control (STK17B (human)): 1.5%
kinase still bound, per cent of control (PLK4 (human)): 8.8%
kinase still bound, per cent of control [1]: 16%
kinase still bound, per cent of control (DAPK1 (human)): 9.7%
kinase still bound, per cent of control (GSK3A (human)): 17%
kinase still bound, per cent of control (PIK3CG (human)): 2.6%
kinase still bound, per cent of control (CIT (human)): 19%
kinase still bound, per cent of control (CAMKK1 (human)): 16%
kinase still bound, per cent of control (RIPK4 (human)): 7.9%
kinase still bound, per cent of control (BRSK2 (human)): 17%
kinase still bound, per cent of control (CAMKK2 (human)): 33%
kinase still bound, per cent of control (GAK (human)): 6.6%
kinase still bound, per cent of control (MAP3K5 (human)): 31%
kinase still bound, per cent of control (CLK4 (human)): 6.4%
kinase still bound, per cent of control (CLK1 (human)): 0.55%
kinase still bound, per cent of control (CSNK2A2 (human)): 6.7%
kinase still bound, per cent of control (PIM2 (human)): 0.8%
kinase still bound, per cent of control (DYRK1B (human)): 5.6%
kinase still bound, per cent of control (MYLK3 (human)): 22%
